Experimental data from US20240208961A1, “EIF4E INHIBITORS AND USES THEREOF” (PIC Therapeutics, Inc., priority 2022, published 2024).
Where “and” joins values, the source holds several entries; their conditions need not be identical. Identical values can stand only once. Like-named read-outs stand apart in the source and are kept apart here.

Tests used:
[1] = system: NIHOVCAR3; test: Cell viability assay, adherent cell line, 5 day Alamar Blue (Example 8): NIHOVCAR3; format: cell-based; conditions: Homo sapiens, OVCAR-3, 120 h, OVCAR3, Ovarian Cancer Cell
Method: (§1) Cell viability assays were performed on certain compounds of the disclosure, according to the following procedure.
(§2) Cell line specific media conditions used:
(§3) The procedure for adherent cell line compound screening was as follows:
(§4) • Cells were seeded in 96-well cell culture treated tissue culture plates: ZR-75-1, NIHOVCAR3, T47D, and LOVO cells 4000 cells/well; and HPAFII 3000 cell/well
(§5) Day 3: Compound Dilution and Dosing
(§6) • 5-fold serial dilution (8 point) of each compound in DMSO 0-25 mM in compound storage plates was prepared (stored at −80° C. if not to be used immediately). • Cells were rinsed with 1% FBS Media (appropriate to cell line as described above) and replaced with 87.5 μL media prior to dosing. HPAFII was screened in normal 10% FBS Media. • DMSO compound dilution series was diluted in 1% FBS media (appropriate to cell line as described above)—2 μL in 248 μL to give an 8× final concentration. • Cells were dosed 12.5 μL/well in triplicate to give final dose curved on cells 0-25 μM. • Media blank 100 μL/well×8 was set up. • All plates were incubated at 37° C.
(§7) Day 8: 5 Day Viability Assay
(§8) • Alamar Blue viability reagent was added (10 μL per well) and incubated for 3 hours at 37° C. prior to fluorescence detection (Ex560 nm/Em590 nm) on a Varioskan Lux multimode plate reader.
(§9) Results from cell viability assays are summarized in Table 23, wherein A represents IC50≤1 μM; B represents 1 μM<IC50≤8 μM; and C represents IC50>8 μM. Blank cells indicate that the compound was not tested in a particular assay.

[2] = Pharmacokinetic studies of certain compounds in female Balb/c mice (Example 5); format: in vivo
How it was run: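 Female Balb/c mice (N=9) were fasted overnight and given compound PO as a suspension in 1% CMC/0.2% Tween 80 or IV in 5% DMSO/5% Solutol HS15/90% saline. Facial-vein plasma was taken from 0.083 to 24 h and assayed by LC-MS. Parameters are non-compartmental, and F was based on AUCINF or AUClast.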

[3] = system: HPAFII; test: Cell viability assay, adherent cell line, 5 day Alamar Blue (Example 8): HPAFII; format: cell-based; conditions: Homo sapiens, HPAF-II, 120 h, Pancreatic Cancer Cell
Method: as §1, §2, §3, §4, §5, §6, §7, §8, §9

[4] = I-8 IV 1 mg/kg, 8 hr, BQL = below quantifiable limit of 3.00 ng/mL
[5] = I-8 IV 1 mg/kg, 24 hr, BQL = below quantifiable limit of 3.00 ng/mL

For `CC(C)Cc1sc(Nc2ncc(-c3cccs3)cc2C(=O)O)nc1C1=CCCC1` [Compound I-8], the IC50 [1] was no more than 1000 nM, the “Plasma concentration Individual” value ([2]; I-8 IV 1 mg/kg, 0.083 hr, 1 mg/kg) was 2020 ng/mL and 1630 ng/mL and the “Plasma concentration Individual” value ([2]; I-8 IV 1 mg/kg, 0.25 hr, 1 mg/kg) was 632 ng/mL and 700 ng/mL. For the same molecule, the “Plasma concentration Individual” value ([2]; I-8 IV 1 mg/kg, 0.5 hr, 1 mg/kg) was 309 ng/mL and 296 ng/mL, the “Plasma concentration Individual” value ([2]; I-8 IV 1 mg/kg, 1 hr, 1 mg/kg) was 66.5 ng/mL and 97.1 ng/mL and the “Plasma concentration Individual” value ([2]; I-8 IV 1 mg/kg, 2 hr, 1 mg/kg) was 25.8 ng/mL and 16.3 ng/mL. For the same molecule, the “Plasma concentration Individual” value ([2]; I-8 IV 1 mg/kg, 4 hr, 1 mg/kg) was 7.83 ng/mL and 8.03 ng/mL, the “Plasma concentration Individual” value [2, 4] was “BQL” and the “Plasma concentration Mean” value [2, 4] was “BQL”. For the same molecule, the “Plasma concentration Individual” value [2, 5] was “BQL”, the “Plasma concentration Mean” value [2, 5] was “BQL” and the F ([2]; I-8 PO 50 mg/kg vs IV 1 mg/kg) was 27.8%. The “Plasma concentration Individual” value ([2]; I-8 PO 50 mg/kg, 0.083 hr, 50 mg/kg) was 482 ng/mL and 270 ng/mL, the “Plasma concentration Individual” value ([2]; I-8 PO 50 mg/kg, 0.25 hr, 50 mg/kg) was 1250 ng/mL and 2030 ng/mL and the “Plasma concentration Individual” value ([2]; I-8 PO 50 mg/kg, 0.5 hr, 50 mg/kg) was 1900 ng/mL and 3970 ng/mL and 4110 ng/mL. For the same molecule, the “Plasma concentration Individual” value ([2]; I-8 PO 50 mg/kg, 1 hr, 50 mg/kg) was 3600 ng/mL and 2260 ng/mL, the “Plasma concentration Individual” value ([2]; I-8 PO 50 mg/kg, 2 hr, 50 mg/kg) was 2510 ng/mL and 1700 ng/mL and the “Plasma concentration Individual” value ([2]; I-8 PO 50 mg/kg, 4 hr, 50 mg/kg) was 536 ng/mL and 958 ng/mL. For the same molecule, the “Plasma concentration Individual” value ([2]; I-8 PO 50 mg/kg, 8 hr, 50 mg/kg) was 127 ng/mL and 134 ng/mL, the “Plasma concentration Individual” value ([2]; I-8 PO 50 mg/kg, 24 hr, 50 mg/kg) was 5.77 ng/mL and 14.0 ng/mL and 3.49 ng/mL and the concentration at 0.083 hr ([2]; female, Balb/c, mouse, plasma, iv, 1 mg/kg, I-8 IV 1 mg/kg, 0.083 hr, read-out: Plasma concentration Individual) was 1780 ng/mL. For the same molecule, the concentration at 0.083 hr ([2]; female, Balb/c, mouse, plasma, iv, 1 mg/kg, I-8 IV 1 mg/kg, 0.083 hr, read-out: Plasma concentration Mean) was 1810 ng/mL, the concentration at 0.25 hr ([2]; female, Balb/c, mouse, plasma, iv, 1 mg/kg, I-8 IV 1 mg/kg, 0.25 hr, read-out: Plasma concentration Individual) was 847 ng/mL and the concentration at 0.25 hr ([2]; female, Balb/c, mouse, plasma, iv, 1 mg/kg, I-8 IV 1 mg/kg, 0.25 hr, read-out: Plasma concentration Mean) was 726 ng/mL. For the same molecule, the concentration at 0.5 hr ([2]; female, Balb/c, mouse, plasma, iv, 1 mg/kg, I-8 IV 1 mg/kg, 0.5 hr, read-out: Plasma concentration Individual) was 232 ng/mL, the concentration at 0.5 hr ([2]; female, Balb/c, mouse, plasma, iv, 1 mg/kg, I-8 IV 1 mg/kg, 0.5 hr, read-out: Plasma concentration Mean) was 279 ng/mL and the concentration at 1 hr ([2]; female, Balb/c, mouse, plasma, iv, 1 mg/kg, I-8 IV 1 mg/kg, 1 hr, read-out: Plasma concentration Individual) was 85.2 ng/mL. The concentration at 1 hr ([2]; female, Balb/c, mouse, plasma, iv, 1 mg/kg, I-8 IV 1 mg/kg, 1 hr, read-out: Plasma concentration Mean) was 82.9 ng/mL, the concentration at 2 hr ([2]; female, Balb/c, mouse, plasma, iv, 1 mg/kg, I-8 IV 1 mg/kg, 2 hr, read-out: Plasma concentration Individual) was 24.8 ng/mL and the concentration at 2 hr ([2]; female, Balb/c, mouse, plasma, iv, 1 mg/kg, I-8 IV 1 mg/kg, 2 hr, read-out: Plasma concentration Mean) was 22.3 ng/mL. For the same molecule, the concentration at 4 hr ([2]; female, Balb/c, mouse, plasma, iv, 1 mg/kg, I-8 IV 1 mg/kg, 4 hr, read-out: Plasma concentration Individual) was 10 ng/mL, the concentration at 4 hr ([2]; female, Balb/c, mouse, plasma, iv, 1 mg/kg, I-8 IV 1 mg/kg, 4 hr, read-out: Plasma concentration Mean) was 8.62 ng/mL and the concentration at 0.083 h ([2]; female, Balb/c, mouse, plasma, po, 50 mg/kg, I-8 PO 50 mg/kg, 0.083 hr, read-out: Plasma concentration Individual) was 247 ng/mL. It also gave a concentration at 0.083 h ([2]; female, Balb/c, mouse, plasma, po, 50 mg/kg, I-8 PO 50 mg/kg, 0.083 hr, read-out: Plasma concentration Mean) of 333 ng/mL, a concentration at 0.25 h ([2]; female, Balb/c, mouse, plasma, po, 50 mg/kg, I-8 PO 50 mg/kg, 0.25 hr, read-out: Plasma concentration Individual) of 1220 ng/mL and a concentration at 0.25 h ([2]; female, Balb/c, mouse, plasma, po, 50 mg/kg, I-8 PO 50 mg/kg, 0.25 hr, read-out: Plasma concentration Mean) of 1500 ng/mL. The concentration at 0.5 hr ([2]; female, Balb/c, mouse, plasma, po, 50 mg/kg, I-8 PO 50 mg/kg, 0.5 hr, read-out: Plasma concentration Mean) was 3330 ng/mL, the concentration at 1 h ([2]; female, Balb/c, mouse, plasma, po, 50 mg/kg, I-8 PO 50 mg/kg, 1 hr, read-out: Plasma concentration Individual) was 1810 ng/mL and the concentration at 1 h ([2]; female, Balb/c, mouse, plasma, po, 50 mg/kg, I-8 PO 50 mg/kg, 1 hr, read-out: Plasma concentration Mean) was 2560 ng/mL. The concentration at 2 h ([2]; female, Balb/c, mouse, plasma, po, 50 mg/kg, I-8 PO 50 mg/kg, 2 hr, read-out: Plasma concentration Individual) was 1670 ng/mL, the concentration at 2 h ([2]; female, Balb/c, mouse, plasma, po, 50 mg/kg, I-8 PO 50 mg/kg, 2 hr, read-out: Plasma concentration Mean) was 1960 ng/mL and the concentration at 4 h ([2]; female, Balb/c, mouse, plasma, po, 50 mg/kg, I-8 PO 50 mg/kg, 4 hr, read-out: Plasma concentration Individual) was 530 ng/mL. It also gave a concentration at 4 h ([2]; female, Balb/c, mouse, plasma, po, 50 mg/kg, I-8 PO 50 mg/kg, 4 hr, read-out: Plasma concentration Mean) of 675 ng/mL, a concentration at 8 h ([2]; female, Balb/c, mouse, plasma, po, 50 mg/kg, I-8 PO 50 mg/kg, 8 hr, read-out: Plasma concentration Individual) of 155 ng/mL and a concentration at 8 h ([2]; female, Balb/c, mouse, plasma, po, 50 mg/kg, I-8 PO 50 mg/kg, 8 hr, read-out: Plasma concentration Mean) of 139 ng/mL. The concentration at 24 h ([2]; female, Balb/c, mouse, plasma, po, 50 mg/kg, I-8 PO 50 mg/kg, 24 hr, read-out: Plasma concentration Mean) was 7.75 ng/mL, the AUC(0-inf) ([2]; mouse, plasma, I-8 IV 1 mg/kg) was 717 ng·h/mL and the AUC(0-t) ([2]; mouse, plasma, I-8 IV 1 mg/kg) was 705 ng·h/mL. It also gave a C0 ([2]; mouse, plasma, I-8 IV 1 mg/kg) of 2850 ng/mL, an MRT inf ([2]; mouse, plasma, I-8 IV 1 mg/kg) of 28.3 min and an MRT last ([2]; mouse, plasma, I-8 IV 1 mg/kg) of 23.2 min. It also gave a clearance ([2]; mouse, plasma, I-8 IV 1 mg/kg) of 23.2 mL/min/kg, a half-life ([2]; mouse, plasma, I-8 IV 1 mg/kg) of 58.2 min and a Vd ([2]; mouse, plasma, I-8 IV 1 mg/kg, read-out: Vss) of 0.657 L/kg. For the same molecule, the AUC(0-inf) ([2]; mouse, plasma, I-8 PO 50 mg/kg) was 9970 ng·h/mL, the AUC(0-t) ([2]; mouse, plasma, I-8 PO 50 mg/kg) was 9930 ng·h/mL and the Cmax ([2]; mouse, plasma, I-8 PO 50 mg/kg) was 3330 ng/mL. The MRT inf ([2]; mouse, plasma, I-8 PO 50 mg/kg) was 182 min, the MRT last ([2]; mouse, plasma, I-8 PO 50 mg/kg) was 176 min and the Tmax ([2]; mouse, plasma, I-8 PO 50 mg/kg) was 30 min. The half-life ([2]; mouse, plasma, I-8 PO 50 mg/kg) was 197 min and the IC50 [3] was no more than 1000 nM.
